Measurements reported in patent US20110244503A1, “System and Method for Anti-Cancer Drug Candidate Evaluation” (priority 2010, published 2011).

Legend:
[1] = system: ovarian cancer cell line, CAOV-3; experiment: MiCK-type spectrophotometric apoptosis assay, CAOV-3 cells; format: cell-based; details: as Example 1 but with higher drug concentrations, above 3 kinetic units = positive response
Method: Cancer cells were obtained from exponentially growing cultures in RPMI 1640 medium without phenol red supplemented with 10% heat-inactivated fetal bovine serum, 100 U/ml penicillin and 100 μg/mL streptomycin (complete medium) in humidified air with 5% CO2 at 37° C. Cells were harvested, washed with pre-warmed medium and resuspended in complete medium. Appropriate cell counts and viability were tested.
Cells from each cell line in complete medium were placed in wells of a 96-well plate at a concentration of 2 to 5×10^5 cells/ml. Various dilutions of the drug candidate, Idarubicin, were added to the wells in 5 μL aliquots. Final concentrations for the drug candidate were 0.01, 0.1, 0.5, 1, 5, 10 and 20 μM. The plates were incubated at 37° C. for 30 minutes in a humidified 5% CO2 atmosphere. After this adjustment period, 30 μl of sterile mineral oil was layered on top of each well. The microtiter plate was placed in an incubated spectrophotometer chamber (37° C.) and OD at 600 nm was measured every 5 minutes for a period of 48 hours. The reader was calibrated to zero absorbance using well containing only complete medium and no cells. All tests were performed in triplicate.
Data acquisition and computation was performed using appropriate software. OD readings were plotted against time to provide a kinetic representation of cell responses to the drugs and drug candidate. Kinetic units were calculated for each test well. A kinetic unit below […] was considered a negative response and above 3 was considered a positive response. A kinetic unit between 1.5 and 3 was considered a marginal response.
A variety of anti-cancer drugs were tested against a single ovarian cancer cell line, CAOV-3, to determine their suitability for use against ovarian cancer. Tests were performed in a manner similar to those in Example 1, but with higher drug concentrations.

[2] = system: MOLT-3, an acute T-cell lymphoblastic leukemia; experiment: MiCK-type spectrophotometric apoptosis assay, MOLT-3 cells; format: cell-based, human; details: 0.01-20 μM
Method: (§1) Spectrophotometric data may be converted to kinetic units. Kinetic units are determined by the slope of the curve created when the change in the OD at 600 nm caused by cell blebbing is plotted as a function of time. Specific information regarding the calculation of kinetic units is provided in Kravtsov, Vladimir D. et al., Use of the Microculture Kinetic Assay of Apoptosis to Determine Chemosensitivities of Leukemias, Blood 92:968-980 (1998), incorporated by reference herein. Optical density for a given drug candidate at a given concentration may be plotted against time. This plot gives a distinctive increasing curve if the cells are undergoing apoptosis. […] (FIG. 3.) Cell death due to reasons other than apoptosis can also be determined by the current assay and is useful in eliminating false positives from drug candidate screening. […]
(§2) Vmax is the maximum kinetic rate, which is the slope of the steep increase in the OD v. time plot when cells are undergoing apoptosis. […] ODcell is the initial OD of the control containing cells and ODblank is the initial OD of a blank well containing only medium or medium and drug (the drug may be omitted for some drugs, but for colored drugs in particular it may be included in the blank). y is a coefficient dependent on the cell type being assayed and may be determined experimentally through observation of the cell lines. […]

[3] = system: JURL-MK2, a chronic myeloid leukemia in blast crisis; experiment: MiCK-type spectrophotometric apoptosis assay, JURL-MK2 cells; format: cell-based, human; details: 0.01-20 μM, OD at 600 nm every 5 minutes for 48 hours, above 3 = positive response
Method: as §1, §2

[4] = system: HL60, an acute promyelocytic leukemia cell line; experiment: MiCK-type spectrophotometric apoptosis assay, HL60 cells; format: cell-based, human; details: HL-60 cells
Method: as §1, §2

[5] = system: RAMOS, a B cell line derived from Burkitt's lymphoma; experiment: MiCK-type spectrophotometric apoptosis assay, RAMOS cells; format: cell-based, human; details: 0.01-20 μM
Method: as §1, §2

Row | SMILES | response / suitability (in words) [1] | also measured
1 | O=C1c2c(O)ccc(O)c2C(=O)c2c(NCCNCCO)ccc(NCCNCCO)c21 [Mitoxantrone] | positive response at reasonable concentrations | 
2 | CC(=O)[C@]1(O)Cc2c(O)c3c(c(O)c2[C@@H](O[C@H]2C[C@H](N)[C@H](O)[C@H](C)O2)C1)C(=O)c1ccccc1C3=O [Idarubicin, 4-demethoxydaunorubicin] | positive response at reasonable concentrations | concentration dependence of kinetic unit readings (in words) [2]: higher kinetic unit readings at lower concentrations; apoptotic response ([2]; OD at 600 nm every 5 minutes for 48 hours, above 3 = positive response): exceeding 3 kinetic units; apoptotic response [3]: exceeding 3 kinetic units; maximal response ([4]; 0.01-20 μM, 48 hours, between 1.5 and 3 = marginal response): 2.3 kinetic units; drug sensitivity (in words) ([4]; threshold 3 kinetic units): only marginal sensitivity; apoptotic response ([5]; RAMOS cells, OD at 600 nm every 5 minutes for 48 hours, above 3 = positive response): exceeding 3 kinetic units; concentration dependence of response (in words) ([5]; Ramos cells): positive response was seen in the Ramos cell line only at high concentrations
3 | O=C1[O][Pt]2([NH][C@@H]3CCCC[C@H]3[NH]2)[O]C1=O [Oxaliplatin] | not suitable drugs for treating ovarian cancer | 
4 | CO[C@@]12[C@H](COC(N)=O)C3=C(C(=O)C(C)=C(N)C3=O)N1C[C@@H]1N[C@@H]12 [Mitomycin] | positive response at reasonable concentrations | 
5 | CCc1c2c(nc3ccc(OC(=O)N4CCC(N5CCCCC5)CC4)cc13)-c1cc3c(c(=O)n1C2)COC(=O)[C@]3(O)CC [Irinotecan] | need to use high concentrations of the drug to achieve a positive response | 
6 | CCC1=C[C@@H]2CN(C1)Cc1c([nH]c3ccccc13)[C@@](C(=O)OC)(c1cc3c(cc1OC)N(C)[C@H]1[C@@](O)(C(=O)OC)[C@H](OC(C)=O)[C@]4(CC)C=CCN5CC[C@]31[C@@H]54)C2 [Vinorelbine] | not suitable drugs for treating ovarian cancer | 
7 | COc1cccc2c1C(=O)c1c(O)c3c(c(O)c1C2=O)C[C@@](O)(C(C)=O)C[C@@H]3O[C@H]1C[C@H](N)[C@H](O)[C@H](C)O1 [Daunorubicin] | positive response at reasonable concentrations | 
